Reference: paper PMC11477298, “Small Molecules Inducing Autophagic Degradation of Expanded Polyglutamine Protein through Interaction with Both Mutant ATXN3 and LC3” (International Journal of Molecular Sciences, 2024)

What was measured:
[1] = test system: human ATXN3-Q75-GFP SH-SY5Y cells; test: MTT compound cytotoxicity assay; type: cell-based; details: 0.1–100 μM compound, viability analyzed the next day, n = 3
Experimental: For the compound cytotoxicity assay, ATXN3-Q75-GFP SY5Y cells (2 × 10^4) were plated into 96-well dishes, grown for 20 h, and treated with 0.1–100 μM test compounds. After 1 day, 3-(4,5-dimethylthiazol-2-yl)-2,5-diphenyltetrazolium bromide (MTT, 5 mg/mL) (Sigma-Aldrich, St. Louis, MO, USA) was added to the cells and incubated for 3 h at 37 °C. Lysis buffer (10% Triton X-100, 0.1 N HCl, 18% isopropanol) was then added to dissolve the insoluble formazan crystals. The absorbance of the purple-colored solution was measured at optical density (OD) 570 nm by using a FLx800 fluorescence microplate spectrophotometer (Bio-Tek, Winooski, VT, USA). The half-maximal inhibitory concentration (IC50) was calculated through the construction of a dose–response curve.

[2] = test system: ATXN3-Q75-GFP SH-SY5Y cells; test: High-content neurite outgrowth assay; type: cell-based, human; details: compound 10 µM, range over the four named compounds; for Neurite branch: untreated 1.16; for Neurite process: untreated 2.41; for Neurite length: untreated 23.2 µm
Experimental: ATXN3-Q75-GFP SH-SY5Y cells (5 × 10^4/well) were plated onto 24-well plates, with retinoic acid addition (10 µM; Sigma-Aldrich) on day 1 to initiate neuronal differentiation. On day 2, the cells were pretreated with disaccharide trehalose (10 mM, as a positive control) or the studied compounds (10 μM) for 8 h, followed by the addition of doxycycline (5 μg/mL, Sigma-Aldrich) to induce ATXN3-Q75-GFP expression. The cells were kept in the medium containing retinoic acid, the test compound, and doxycycline for 6 days, with the culture medium changed on day 5. ATXN3-Q75 aggregation and neurite outgrowth assays were performed on day 8 using a high-content imaging system (ImageXpress Micro Confocal; Molecular Devices).
For the aggregation assay, cells were stained with Hoechst 33342 (0.1 µg/mL; Sigma-Aldrich) at 37 °C for 30 min. Images of the cells were automatically obtained at excitation/emission wavelengths of 482/536 nm (FITC [fluorescein isothiocyanate] filter) for enhanced GFP and 377/447 nm (DAPI [4′,6-diamidino-2-phenylindole] filter) for nucleus counting. ATXN3-Q75 aggregation was determined by Transfluor technology based on GFP fluorescence intensity. For the neurite outgrowth assay, cells were fixed with 4% paraformaldehyde for 30 min, permeabilized with 0.1% Triton X-100 for 10 min, and blocked by non-specific binding with 3% bovine serum albumin for 20 min. The primary TUBB3 (neuronal class III β-tubulin) antibody (1:1000; BioLegend #802001, San Diego, CA, USA) was used to stain cells at 4 °C overnight, followed by Alexa Fluor 555-donkey anti-rabbit IgG secondary antibody (1:1000; Invitrogen #A-31572) staining for 2 h at room temperature. Nuclei were detected using DAPI (0.1 μg/mL; Sigma-Aldrich). Cell images were obtained at excitation/emission wavelengths of 531/593 nm (TRITC [tetramethylrhodamine] filter) for stained neurites and 377/447 nm (DAPI filter) for nuclei. To quantify neurite outgrowth, microscopic images were segmented with multi-colored masks to assign each outgrowth to a cell body for quantification. Neurite total length (μm) and numbers of process (primary neurites originating from neuronal cell body) and branch (secondary neurites extended from primary neurites) were analyzed (Neurite Outgrowth Application Module; Molecular Devices). In general, […] in each biological replicate were analyzed.

Compound	IC50 [1]	Neurite branch [2]	Neurite process [2]	Neurite length [2]
CC(=O)/C(=C\c1ccccc1[N+](=O)[O-])Cc1c[nH]c2ccccc12 [NC009-1]	> 100 µM	1.34–1.37	2.55–2.57	26.1–26.9 µm
O=C(c1ccccc1)c1cc2c(O)cccc2oc1=O [LM-031]	–	1.34–1.37	2.55–2.57	26.1–26.9 µm
CC(=O)/C(=C\c1ccccc1[N+](=O)[O-])Cc1c(C)[nH]c2ccccc12 [NC009-2]	> 100 µM	1.34–1.37	2.55–2.57	26.1–26.9 µm
